PMC2667896 (Archives of Drug Information, 2009)
Like-named read-outs stand apart in the source and are kept apart here.

Legend:
[1] = cited from earlier work
CYP3A4 = conditions: cited from earlier work
[2] = Steady-state plasma pharmacokinetics in healthy volunteers; assay type: in vivo, human
[3] = Day 11, Arm 1, participant 2, saquinavir/ritonavir 1,000/100 mg orally twice daily
[4] = Day 11, Arm 1, participant 4, saquinavir/ritonavir 1,000/100 mg orally twice daily
[5] = Day 12, Arm 1, participant 2, saquinavir/ritonavir 1,000/100 mg orally twice daily
[6] = Day 12, Arm 1, participant 4, saquinavir/ritonavir 1,000/100 mg orally twice daily
[7] = Day 13, Arm 1, participant 2, saquinavir/ritonavir 1,000/100 mg orally twice daily
[8] = Day 13, Arm 1, participant 4, saquinavir/ritonavir 1,000/100 mg orally twice daily

Row | Individual trough plasma concentration ([2]; Day 11, Arm 2, participant 1, efavirenz 600 mg orally once daily) | Individual trough plasma concentration ([2]; Day 12, Arm 2, participant 1, efavirenz 600 mg orally once daily) | Individual trough plasma concentration ([2]; Day 13, Arm 2, participant 1, efavirenz 600 mg orally once daily) | AUC ([2]; human, plasma, po, 600 mg) | Cmax ([2]; human, plasma, po, 600 mg) | Tmax ([2]; human, plasma, po, 600 mg) | half-life ([2]; human, plasma, po, 600 mg) | Individual trough plasma concentration [2, 3] | Individual trough plasma concentration [2, 4] | Individual trough plasma concentration [2, 5] | Individual trough plasma concentration [2, 6] | Individual trough plasma concentration [2, 7] | Individual trough plasma concentration [2, 8] | half-life ([2]; human, plasma, po) | Tmax ([2]; steady state (day 14), Arm 1, participant 2, saquinavir/ritonavir 1,000/100 mg orally twice daily) | Tmax ([2]; human, plasma, po) | Structure (SMILES) | half-life [1] | Effect on CYP3A4 (CYP3A4; efavirenz) | Effect on CYP3A4 (CYP3A4; saquinavir)
1 | 1,080 ng/mL | 1,050 ng/mL | 1,060 ng/mL | 42500 ng·h/mL | 4780 ng/mL | 2 h | 26.5 h |  |  |  |  |  |  |  |  |  | O=C1Nc2ccc(Cl)cc2[C@@](C#CC2CC2)(C(F)(F)F)O1 [Efavirenz] | 40 to 55 h | potent inducer | 
2 |  |  |  |  |  |  |  | 57.8 ng/mL | 137 ng/mL | 83.8 ng/mL | 163 ng/mL | 86.2 ng/mL | 251 ng/mL | 3.53 h | 1.00 h |  | CC(C)c1nc(CN(C)C(=O)N[C@H](C(=O)N[C@@H](Cc2ccccc2)C[C@H](O)[C@H](Cc2ccccc2)NC(=O)OCc2cncs2)C(C)C)cs1 [Ritonavir] |  |  | 
3 |  |  |  |  |  |  |  | 337 ng/mL | 602 ng/mL | 640 ng/mL | 700 ng/mL | 867 ng/mL | 1,220 ng/mL | 5.98 h |  | 2 h | CC(C)(C)NC(=O)[C@@H]1C[C@@H]2CCCC[C@@H]2CN1C[C@@H](O)[C@H](Cc1ccccc1)NC(=O)[C@H](CC(N)=O)NC(=O)c1ccc2ccccc2n1 [Saquinavir] |  |  | weak CYP3A4 inhibitor
